Literature values in patent publication US6048878A, “Substituted piperidine derivatives as selective agonists of 5-HT receptors” (Merck Sharp & Dohme Ltd., priority 1995, dated 2000).

What was measured:
[1] = test system: human 5-HT1D.sbsb.α and 5-HT1D.sbsb.β receptor subtypes; settings: cf. WO-A-91/17174, Table 1
[2] = therapeutic doses

discrimination between the human 5-HT1D.sbsb.α and 5-HT1D.sbsb.β receptor subtypes [1]: barely discriminates
SMILES: CNS(=O)(=O)Cc1ccc2[nH]cc(CCN(C)C)c2c1 [sumatriptan]
adverse cardiovascular events in humans [2]: certain adverse cardiovascular events
